The source of these data is US12433885B2, “Procaspase combination therapy for glioblastoma” (THE BOARD OF TRUSTEES OF THE UNIVERSITY OF ILLINOIS, priority 2012, dated 2025).

A short description of series [1]: Neurotoxicity of oral PAC-1 in mice. Format: in vivo. Conditions: given orally at up to 200 mg/kg.
In another series the test system is K7M2 cells. Put plainly: Mouse model of metastatic osteosarcoma, survival. The settings on record: oral PAC-1 100 mg/kg in HPβCD and TMZ 50 mg/kg, sequential, daily for five consecutive days, from seven days after K7M2 injection; n=8 mice per group. It is filed as in vivo. Here is the method: FIG. 4. PAC-1 synergizes with TMZ to extend survival in a mouse model of metastatic osteosarcoma. Seven days after injection of K7M2 cells, mice were treated orally with PAC-1 (100 mg/kg in HPβCD), TMZ (50 mg/kg […]), or a sequential treatment with each, daily for five consecutive days; n=8 mice per group.

The next series deals with 9 L cell line. Nature of the series: IC50 of PAC-1 with the 9 L cell line. Format: cell-based. Conditions: Rattus norvegicus; 72 hour experiment; initial assessment. How it is done:
The initial assessment for the IC50 for PAC-1 with the 9 L cell line is about 7 μM (72 hour experiment).

For the next series, the system named is 9 L (rat glioma) cells. Put plainly: 9 L intracranial syngeneic rat glioma model, overall survival. Format: in vivo. The settings on record: for Median survival: F344 rats, intracranial 9 L, PAC-1 50 mg/kg oral gavage days 0-4, TMZ 50 mg/kg oral gavage days 5-9, 8 rats per group.

The structures appear in SMILES notation.

Description for 9 L (rat glioma) cells: 9 L (rat glioma) cells were intracranially implanted in rats. PAC-1 (50 mg/kg in water) was administered via oral gavage on days 0-4, and TMZ (50 mg/kg in water) was given via oral gavage on days 5-9; 8 rates per group.
The in vivo rat experiments employed 9 L cells, a very aggressive tumor model, implanted inter-cranially in rats in 3 treatment groups (PAC-1 alone, TMZ alone, and the combination of PAC-1 and TMZ) and one control group.
PAC-1 was suspended in water, and given to the rats via oral gavage at 50 mg/kg (a relatively low dose) for 5 days followed by five days of TMZ dosing.
PAC-1 (50 mg/kg in water) was administered via oral gavage on days 0-4, and TMZ (50 mg/kg in H2O) was given via oral gavage on days 5-9.
9 L gliosarcoma was maintained as a solid subcutaneous mass in the flanks of F344 rats. For intracranial implantation, the 9 L gliosarcoma tumor was surgically excised from the carrier animal and sliced into 1 mm^3 pieces at the time of implantation.
The animals were divided into the following four experimental groups with eight animals per group: (1) Control, (2) PAC-1 alone, (3) TMZ alone, and (4) PAC-1+TMZ. The control animals only received water. Two groups of animals from PAC-1 alone and PAC-1+TMZ received an oral gavage of PAC-1 suspended in water starting day 0 six hours post implantation. PAC-1 was administered only for 5 days from day 0 to day 4. The animals from TMZ alone and PAC-1+TMZ groups received 5 doses of TMZ in water administered orally from day 5 to day 9.

As for `C=CCc1cccc(/C=N/NC(=O)CN2CCN(Cc3ccccc3)CC2)c1O` [PAC-1, 2-(4-benzylpiperazin-1-yl)-N-[(2-hydroxy-3-prop-2-enyl-phenyl)methylideneamino]acetamide], the Neurotoxicity entry is reported as “No neurotoxicity was observed” in series [1] and “no neurotoxicity was observed” in the series with 9 L (rat glioma) cells (rats, PAC-1 50 mg/kg oral gavage for 5 days followed by five days of TMZ dosing). Also, the “Synergy with TMZ to extend survival” value in the series with K7M2 cells is recorded as “synergizes”. This compound gave an IC50 in the series with 9 L cell line of roughly 7 µM. For the same compound, in the series with 9 L (rat glioma) cells, the Median survival is reported as 13.5 days.
In the case of `Cn1nnc2c(C(N)=O)ncn2c1=O` [TMZ, Temozolomide, reference compound], in the series with 9 L (rat glioma) cells, the Median survival was found to be 20 days.
